Measured values: patent publication US20170105981A1, “METHODS FOR STABILIZING HYPOXIA INDUCIBLE FACTOR-2 ALPHA AS A METHOD FOR TREATING CANCER” (The Ohio State Innovation Foundation, priority 2011, published 2017)

Assays:
[1] = tested on: sVEGFR-1; experiment: sVEGFR-1 production by human peripheral blood monocytes (ELISA, real-time PCR); format: cell-based; settings: monocytes with 100 ng/mL GM-CSF plus 10 μM compound vs GM-CSF alone, FIG. 11B
Description: Human peripheral blood mononuclear cells (PBMCs) were isolated from fresh peripheral blood leukocyte source packs (American Red Cross, Columbus Ohio) by density gradient centrifugation over Lymphocyte Separation Medium (Cellgro). Monocytes were purified from total PBMCs by layering over FBS. Monocytes were cultured in endotoxin-free RPMI-1640 supplemented with 1% fetal bovine serum (FBS), 0.1% human serum albumin (HSA), and 10 μg/mL of the endotoxin inhibitor polymyxin B. In some experiments, freshly isolated monocytes were differentiated into macrophages by three-day culture in media containing 10% FBS, 1% PSA (penicillin G sodium, streptomycin sulfate, and amphotericin B), and 20 ng/mL M-CSF. Macrophages were serum-starved for 2 hours prior to stimulation. Monocytes or monocyte-derived macrophages were treated for 24 hours with 10 ng/mL GM-CSF, 10 μM disclosed HIF-2α stabilizer, or an equivalent volume of the vehicle controls (PBS or DMSO, respectively). Cell-free culture supematants were harvested and analyzed for VEGF or sVEGFR-1 by ELISA (R&D Systems).
Human monocytes were left untreated or were stimulated with 100 ng/mL GM-CSF at normoxia or at 0.5% O2. At various time-points, cells were harvested in Trizol reagent (Invitrogen) and RNA was extracted in chloroform and then purified using the RNeasy Minikit (Qiagen). In murine studies, organs harvested at the time of euthanasia were flash-frozen in liquid nitrogen, pulverized in liquid nitrogen, and then dissolved in Trizol. cDNA was generated from 1 μg of RNA using the Superscript First Strand Synthesis System (Invitrogen) and used for real-time PCR using previously described primers and SYBR Green PCR Master Mix (Applied Biosciences), according to the manufacturer's instructions. Data were analyzed according to the comparative threshold method and normalized against the β-actin internal control transcript. Results are semi-quantitative and represent the fold difference in transcript levels in a particular sample as compared with levels in untreated cells from the same donor.

[2] = tested on: sVEGFR-1; experiment: sVEGFR-1 transcription in bone marrow-derived macrophages (LysMcre control vs HIF-2αflox/flox/LysMcre); format: cell-based, mice; settings: p=0.036, FIG. 11F
Text: HIF-2α^flox/flox mice (originally developed by Dr. Celeste Simon, University of Pennsylvania) and LysMcre recombinase mice (originally developed by Irmgard Foerster, University of Duesseldorf) (both purchased from The Jackson Laboratory, Bar Harbor, Me.) were crossed to generate mice homozygous for both LysMcre and the floxed HIF-2α allele. LysMcre recombinase mice, which express no floxed alleles, were used as controls. Deletion of HIF-2α in HIF-2α^flox/flox/LysMcre macrophages, but not the LysMcre control macrophages, was confirmed at the transcript level by real-time PCR.
To generate bone marrow-derived macrophages (BDMs), femoral bone marrow was isolated and progenitor cells were plated in RPMI-1640 supplemented with 10% FBS, 1% PSA, 10 μg/mL of polymyxin B, and 20 ng/mL of recombinant murine M-CSF. Cells were cultured for 5 days with the addition of fresh M-CSF every other day. […]
Human monocytes were left untreated or were stimulated with 100 ng/mL GM-CSF at normoxia or at 0.5% O2. […] Data were analyzed according to the comparative threshold method and normalized against the β-actin internal control transcript. Results are semi-quantitative and represent the fold difference in transcript levels in a particular sample as compared with levels in untreated cells from the same donor. […]

In the case of `O=C(O)CNC(=O)c1ncc(-c2cccc(F)c2)cc1O` [disclosed HIF-2α stabilizer, {[5-(3-Fluorophenyl)-3-hydroxypyridine-2-carbonyl]amino} acetic acid], the “sVEGFR-1 production, protein level” value ([1]; p=0.007) is reported as “increased significantly”, the “sVEGFR-1 production, transcript level” value ([1]; p=0.033) is reported as “increased significantly” and the sVEGFR-1 transcription [2] is reported as “induced”.
